Results from patent publication US20240299483A1, “TARGETS AND BIOMARKERS FOR TUMOR MICROENVIRONMENTS” (The Trustees of Indiana University, priority 2023, published 2024).

Tests used:
CD11b^+Ly6G^+ cells = test: CD11b+Ly6G+ population in bone marrow after CPI-613 injection, flow cytometry; format: in vivo; settings: Lal−/− mice, 5 mg/kg on days 0, 2, 4, 7; measured day 8; DMSO control
Method: Mice received 5 mg/kg CPI-613 (PDH inhibitor) on days 0, 2, 4, and 7. On day 8, the CD11b^+Ly6G^+ population in the bone marrow was determined by flow cytometry. DMSO (dimethyl sulfoxide) was used as a control.
(§1) Flow Cytometry Analysis For analyses of percentages of CD11b^+Ly6G^+ (integrin alpha M-positive/Ly6G positive) and Ly6G^+Ly6C^+ (Ly6G positive/lymphocyte antigen 6 C1-positive) cells, single cells harvested from the bone marrow of Lal^+/+ and Lal^−/− mice were stained with APC eFluor 780-conjugated, dye, anti-Ly6G antibody (1A8-Ly6g, cat #47-9668-82), FITC (fluorescein isothiocyanate)-conjugated anti-CD11b antibody (M1/70, cat #11-0112-82), and PE (phycocrythrin)-conjugated anti-Ly6C antibody (HK1.4, cat #12-5932-82) at 4° C. for 15 minutes. All antibodies were acquired from eBioscience, San Diego, CA. For analysis of PD-L1 expression in Ly6G^+ cells, cells were stained with APC eFluor 780-conjugated anti-Ly6G antibody, PE-conjugated anti-CD11c (integrin alpha X) antibody (N418, cat #12-0114-82) (acquired from eBioscience), and PE-Cy7 (cyanine 7)-conjugated anti-PD-L1 antibody (10F.9G2, cat #124314) (acquired from Biolegend) at 4° C. for 15 minutes. Cells were washed with PBS, then were ready for flow cytometry analysis.

CD4^+ T cells = test: T cell proliferation assay (CFSE-labeled CD4+ T cells co-cultured with pre-treated Ly6G+ cells); format: cell-based, mice; settings: Ly6G+ cells pre-treated 10 μM, 1 hour; co-culture 4 days; DMSO control
Method: (§2) Isolation of Bone Marrow Lymphocyte Antigen 6 Member G—Positive (Ly6G^+) Cell Ly6G^+ cells were isolated by magnetic bead sorting. For CPI-613 (also known as Devimistat; a pyruvate dehydrogenase inhibitor) treatment, freshly isolated Ly6G^+ cells were pre-treated with DMSO or 10 μM CPI-613 at 37° C. for 1 hour, and then co-cultured with Cluster of Differentiation 4 Protein-positive […] (CD4^+ T cells) or co-injected with B16 melanoma cells for further analysis.
T cell Proliferation Assay CD4^+ T cells were isolated from the spleen and labeled with carboxyfluorescein succinimidyl ester (CFSE) as previously described. CFSE-labeled CD4^+ T cells were co-cultured with Ly6G^+ cells in 96-well plates pre-coated with anti-CD3 mAb (2 μg/mL) (145-2C11, cat #553057) and anti-CD28 mAb (5 μg/mL) (37.51, cat #553295) (acquired from BD Biosciences) at 37° C., 5% CO2, for 4 days. The ratio of Ly6G^+ cells to CD4^+ T cells was 1:5. Proliferation of CD4^+ T cells was evaluated as CFSE dilution by flow cytometry analysis.

B16 melanoma cells [1] = test: In vitro co-culture of Ly6G+ cells and B16 melanoma cells; format: cell-based, murine; settings: Ly6G+ cells pre-treated 10 μM; co-culture 72 hours
Method: (§3) In Vitro Co-Culture of Ly6G^+ and Tumor Cells B16 melanoma or LLC cells were harvested, resuspended, and adjusted to density at 5×10^4 cells/mL. Isolated Ly6G^+ cells with or without 10 μM CPI-613 pre-treatment were prepared at the cell density of 5×10^6 cells/mL. One hundred microliter of Ly6G^+ cells and 100 μL of B16 melanoma/LLC cells were mixed, and seeded into a well of 96-well plates in DMEM supplemented with 10% FBS. Seventy-two hours later, unattached Ly6G^+ cells were removed by washing with PBS, and the number of attached B16 melanoma/LLC cells was counted. Morphologically, Ly6G^+ cells are much smaller than B16 melanoma/LLC cells for exclusion.
(§4) Small Interfering RNA Transfection Before transfection, Ly6G^+ cells were seeded into 96-well plates at a density of 1×10^6 cells/well. For small interfering RNA (siRNA)-mediated gene knockdown, 50 nmol/L of PDH siRNA (containing a mixture of three independent siRNAs targeting different regions of PDH) or control siRNA was transfected into Ly6G^+ cells with DharmaFECT Transfection Reagent I, chemical formulation for transfection, (acquired from Dharmacon) according to the manufacturer's protocol. After 24 hours of transfection, cells were harvested for further analysis.

Ly6G^+ cells = test: Reactive oxygen species (ROS) measurement in Ly6G+ cells by flow cytometry; format: cell-based, mice; settings: CPI-613 treatment; versus Lal+/+ Ly6G+ cells
Method: as §2
Reactive Oxygen Species (ROS) Measurement The ROS level in Ly6G^+ cells was measured by flow cytometry as previously described. Ly6G^+ cells from Lal^+/+ and Lal^−/− mice with or without CPI-613 pre-treatment were collected and stained with APC eFluor 780-conjugated anti-Ly6G antibody, FITC-conjugated anti-CD11b antibody and 2 μmol/L 2′, 7′-dichlorofluorescein diacetate (acquired from Invitrogen, Carlsbad, CA) at 37° C. for 30 minutes. After PBS washing, the ROS level in Ly6G^+ cells was analyzed using an LSRII machine.
Small Interfering RNA Transfection Before transfection, Ly6G^+ cells were seeded into 96-well plates at a density of 1×10^6 cells/well. […]

B16 melanoma cells [2] = test: Subcutaneous co-injection of pre-treated Ly6G+ cells with B16 melanoma cells, tumor growth; format: in vivo; settings: Ly6G+ cells pre-treated 10 μM 1 hour, co-injected with B16 melanoma cells into Lal+/+ recipient mice; tumor size at 10 days
Method: Subcutaneous Injection of Tumor Cells into Lal^+/+ Mice To study the effect of Ly6G^+ cells on tumor growth, isolated 1×10^6 Ly6G^+ cells from Lal^+/+ or Lal^−/− mice were pre-treated with DMSO or 10 μM CPI-613 for 1 hour, mixed with 2×10^5 B16 melanoma cells, and the cell mixture was injected subcutaneously at the flank region of Lal^+/+ recipient mice. The tumor growth was monitored twice a weck. The tumor volume (mm^3) was estimated by measuring the maximal length (L) and width (W) of a tumor and calculated using the formula: (length×width^2)/2. For tumor-bearing myeloid-derived suppressor cells (MDSCs) experiments, Lal^+/+ or Lal^−/− mice were injected with 1×10^6 B16 melanoma cells at flank sites on two sides. Fourteen days later, the mice were sacrificed. Tumor tissues were harvested, digested for single cell preparation, and stained for flow cytometry analysis of the CD11b^+Ly6G^+ cells.

PD-L1 = PD-L1 expression in Ly6G+ cells after in vivo CPI-613 treatment, flow cytometry; set-up: species or system mice; settings: 5 mg/kg on days 0, 2, 4, 7; day 8; PD-L1+ cells in Ly6G+CD11c+ cells
Method: FIG. 3J measures PD-L1^+ cells of Ly6G^+ CD11c^+ cells isolated from Lal^+/+ and Lal^−/− mice. Mice received 5 mg/kg CPI-613 on days 0, 2, 4, and 7. On day 8, the percentage of PD-L1^+ cells in Ly6G^+ CD11c^+ cells was measured by flow cytometry analysis.
as §1

[3] = test system: Lewis lung carcinoma (LLC) cells; test: In vitro co-culture of Ly6G+ cells and LLC cells; format: cell-based, murine; settings: Ly6G+ cells pre-treated 10 μM; co-culture 72 hours
Method: as §3, §4

[4] = test system: lysosomal acid lipase (LAL); test: Human leucocytes incubated with LAL inhibitor, MDSC subsets by flow cytometry; format: cell-based; settings: leucocytes from healthy subjects, 10 μM, 24 hours
Method: Human leucocytes from healthy individuals were incubated with 10 μM Lalistat2, an LAL inhibitor (L) or DMSO (S) for 24 hours; control group (C) were not treated. After 24 hours, cells were analyzed by flow cytometry.
Human Blood Samples The blood donor characteristics of the human blood samples of normal subjects and non-small-cell lung cancer (NSCLC, at stage III-IV) patients is described in TABLE 8. NSCLC patients were selected by screening with Programmed death-ligand 1 (PD-L1) Tumor Proportion Score (TPS)≥10%. Both normal subjects and NSCLC patients include male and female, White and African American. To inhibit lysosomal acid lipase (LAL) activity, human blood cells from healthy participants had the red blood cells (RBCs) removed with lysis buffer acquired from Biolegend (San Diego, CA); washed with phosphate buffered saline (PBS) by centrifugation at 240×g for 5 minutes at room temperature; and then incubated with 10 μM LAL inhibitor Lalistat2, acquired from Cayman, Ann Arbor, MI) for 24 hours. As a control, human blood cells were incubated with dimethyl sulfoxide (DMSO).
For flow cytometry analysis of human blood samples, human blood cells had the RBCs removed, washed with PBS, and stained with APC-eFluor 780-conjugated anti-CD11b antibody (ICRF44, cat #47-0118-42), FITC-conjugated anti-CD13 (aminopeptidase N) antibody (WM15, cat #11-0138-42), PE-conjugated anti-CD14 antibody (61D3, cat #12-0149-42), APC-conjugated anti-CD15 (Lewis X) antibody (MMA, cat #17-0158-42), PE-conjugated anti-CD33 antibody (HIM3-4, cat #12-0339-42), PE-Cy7-conjugated anti-HLA-DR (major histocompatibility complex, class II) antibody (L243, cat #25-9952-42) (all acquired from eBioscience) at 4° C. for 15 minutes. Cells were then washed with PBS, fixed with 1% paraformaldehyde, and prepared for flow cytometry analysis. To analyze LAL levels, cells were further fixed and permeabilized using BD Cytofix/Cytoperm Fixation/Permeabilization Kit, cell fixation and permeabilization kit, and incubated with non-fluorescence conjugated anti-LAL antibody at 4° C. overnight. […]

| Structure (SMILES) | Lal−/− CD11b+Ly6G+ cells (percentage in bone marrow) (CD11b^+Ly6G^+ cells) | Lal−/− Ly6G+ cells' suppressive activity on T cell proliferation (CD4^+ T cells) | capability of Lal−/− Ly6G+ cells in promoting tumor cell proliferation, B16 melanoma (B16 melanoma cells [1]) | overproduction of ROS in Lal−/− CD11b+Ly6G+ cells (Ly6G^+ cells) | capability of Lal−/− Ly6G+ cells in stimulating tumor growth (B16 melanoma cells [2]) | PD-L1 expression in Lal−/− Ly6G+ cells (PD-L1) | capability of Lal−/− Ly6G+ cells in promoting tumor cell proliferation, LLC [3] | induction of CD11b+CD15+HLA-DR− MDSC subset [4] | percentage of CD11b+CD13+HLA-DR− MDSC subset [4] | percentage of CD11b+CD14+HLA-DR− MDSC subset [4] |
| --- | --- | --- | --- | --- | --- | --- | --- | --- | --- | --- |
| O=C(O)CCCCC(CCSCc1ccccc1)SCc1ccccc1 (stereo not shown) [CPI-613] | reduced | reversed | reduced capabilities | significantly reversed | reduced capabilities | effectively reduced | reduced capabilities | – | – | – |
| O=C(Oc1nsnc1N1CCCCC1)N1CCCCC1 [Lalistat2] | – | – | – | – | – | – | – | did not reach statistical significance | increased | increased |
